As a reminder, the IC50 is the concentration that gives 50% inhibition.

The target of this experiment is T1, Myeloperoxidase (Homo sapiens, UniProt P05164).
T1 sequence (P05164 whole entry): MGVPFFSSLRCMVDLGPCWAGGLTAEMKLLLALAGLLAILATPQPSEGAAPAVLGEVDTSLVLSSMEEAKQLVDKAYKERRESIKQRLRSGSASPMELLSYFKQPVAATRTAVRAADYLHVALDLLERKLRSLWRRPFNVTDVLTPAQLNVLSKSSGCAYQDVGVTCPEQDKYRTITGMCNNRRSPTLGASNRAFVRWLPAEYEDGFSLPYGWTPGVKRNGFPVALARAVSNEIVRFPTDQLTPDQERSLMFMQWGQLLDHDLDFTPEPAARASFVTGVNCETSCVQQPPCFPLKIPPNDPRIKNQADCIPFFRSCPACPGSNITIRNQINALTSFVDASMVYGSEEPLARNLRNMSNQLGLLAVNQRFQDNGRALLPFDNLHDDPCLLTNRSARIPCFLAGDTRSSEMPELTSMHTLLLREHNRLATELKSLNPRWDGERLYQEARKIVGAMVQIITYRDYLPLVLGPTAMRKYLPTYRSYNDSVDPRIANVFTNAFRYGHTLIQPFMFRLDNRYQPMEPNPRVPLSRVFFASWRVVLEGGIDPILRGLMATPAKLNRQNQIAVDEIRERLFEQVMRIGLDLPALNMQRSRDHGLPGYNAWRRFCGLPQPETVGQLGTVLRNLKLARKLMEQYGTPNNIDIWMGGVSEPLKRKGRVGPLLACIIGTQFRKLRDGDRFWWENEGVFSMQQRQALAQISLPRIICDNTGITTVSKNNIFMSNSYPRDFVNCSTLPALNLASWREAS
Kind of experiment: Activity Assay. The conditions noted are these: pH 7.4; 21 °C. As for the experimental part:
The chlorination activity of MPO was determined by measuring the production of hypocholorous acid.
For the compound `CC(C)Cn1c(=S)[nH]c(=O)c2[nH]cnc21` [2-Thioxanthine, TX1], inhibition was half-maximal at 1000 nM (IC50). To `O=c1[nH]c(=S)n(CC2CCCO2)c2nc[nH]c12` (centres undefined) [2-Thioxanthine, TX3] belongs 400 nM. `O=c1[nH]c(=S)n(C[C@H]2CCCO2)c2nc[nH]c12` [2-Thioxanthine, TX4] registered an IC50 of 200 nM. Against the preceding compound, the IC50 is about 2-fold lower.

In turn, `COCCn1c(=S)[nH]c(=O)c2[nH]cnc21` [2-Thioxanthine, TX5] had an IC50 of 400 nM.

The values above are taken from BindingDB's records for doi:10.1074/jbc.M111.266981 (AstraZeneca, 2011).
